Measurements published in EP0909530A1, “Increased solubility of water soluble compounds” (BASF CORPORATION, priority 1997, dated 1999).

Experiment: Crystal formation in acifluorfen solution with co-solvents after cold storage (Example 2)
Assay type: physicochemical
Conditions: for Crystal Formation (%): stored at 5°C for 4 days, read at room temperature; for inhibition of precipitate: result in words
Experimental: An aqueous solution having a concentration of 46.8 % acifluorfen (sodium salt, Rohm and Haas, Inc.; significant crystallization observed) was heated to about 50°C to 60°C and stirred until the crystals dissolved (about ten hours). The solution was allowed to cool to room temperature. The dispersants were separately added to the solutions containing the acifluorfen to form a 1.0% solution (by weight) of the dispersant. The resulting samples were stored at 5°C for four days.
After four days, the samples were removed from storage and allowed to reach room temperature and the volume occupied by crystals was calculated (visual estimates) . The results were obtained by observation using a polarized Nikon Optiphot-2 Pol microscope.
Co-Solvents were evaluated for their ability to inhibit precipitation of acifluorfen in aqueous solutions. The experiment was carried-out using the same steps as described for the dispersants of Example 1. The co-solvents were evaluated at 5% and 10% by total weight of the solution. The formulations were stored at 5°C for 4 days and the percent crystal volume recorded after the temperature reached room temperature. […]

| SMILES | Crystal Formation (%) (co-solvent Amount 5 %) | Crystal Formation (%) (co-solvent Amount 10 %) | inhibition of precipitate |
| --- | --- | --- | --- |
| CCCCOCCO [Butyl Cellosolve] | 10 | 15 | most significant inhibition |
| OCCO [Ethylene Glycol] | 10 | 15 | most significant inhibition |
| CC(O)CO (centres unmarked) [Propylene Glycol] | 10 | 80 |  |
